Experimental data published in patent US20120135089A1, “E3 LIGASE INHIBITORS” (priority 2009, published 2012).
“Also recorded” adds a separate entry of the source.

How the values were obtained:
[1] = target: T1, Mdm2 RING-MdmX RING hetero-complex (Homo sapiens, UniProt O15151+Q00987); test: in vitro ubiquitination assay, Mdm2 RING-MdmX RING; assay type: biochemical
T1 construct: 500 ng GST-Mdm2 (residues 400-491); GST-MdmX (residues 410-490); made in house
Protocol: These assays were performed with 100 ng of full-length Flag-Mdm2 or 200 ng of Flag-Mdm2/HA-MdmX complexes (100 ng of each protein as each are present in a 1:1 ratio, when purified), ^32P-labeled ubiquitin, UbCH5c, and E1. Following a 30-minute incubation at 37° C., reactions were terminated and resolved on a SDS-PAGE gel followed by autoradiography. PC indicates positive control, and NC indicates negative control with UbCH5C eliminated from the reaction. The gels were quantified by phosphoimaging using ImageQuant software (GE Healthcare Bio-Sciences Corp., Piscataway, N.J.). […] Reactions were performed as in FIG. 11A except 500 ng GST-Mdm2 (residues 400-491) and GST-MdmX (residues 400-490) were used for ubiquitin polymerization. […] Reactions were performed as in FIG. 11A except with 3 μg of the Roc1/Cul1 ligase complex. Ubiquitination activity of the complex was tested in the presence of increasing concentrations of MEL23 and MEL24.
Radiolabeled in vitro ubiquitination assays were carried out in 30 μl reaction mixtures with ^32P-labeled ubiquitin. 500 ng GST-Mdm2 (residues 400-491) and GST-MdmX (residues 410-490) were used for the RING-RING reactions. The products of the reaction were resolved on a SDS-PAGE gel and visualized by autoradiography.

[2] = system: p53/Mdm2, p53/MdmX or Mdm2/MdmX complex; test: co-immunoprecipitation of p53/Mdm2/MdmX complexes in MCF7 cells; assay type: cell-based, human; conditions: 10 μg/ml, 6 hours
Protocol: MCF7 cells were seeded in a 10-cm dish overnight and treated for 6 hours with 10 μg/ml (28 μM) MEL23, 5.3 μg/ml (10 μM) Nutlin-3a or DMSO. […] The experimental conditions of the results shown in FIG. 33B were as follows: FLAG-Mdm2 was transfected into cells and after 24 hours, treated with compounds, and cell lysates were incubated with anti-FLAG M2 antibody for 2 hours, followed by incubation with Protein-A/G sepharose beads for an hour at 4° C. Beads were washed and proteins eluted with 5×SDS and separated on SDS-PAGE.

RKO and RKO-E6 cells = test: Alamar Blue viability assay, RKO and RKO-E6 cells; assay type: cell-based, human; conditions: 48 hours, dilution series
Protocol: (§1) RKO and RKO-E6 cells were seeded in 384-well plates and treated with a dilution series of MEL23 for 48 hours as indicated. Alamar Blue was added for 16 hours and fluorescence determined on a Victor3 Plate Reader. The median percent inhibition of five replicates was determined and normalized to a no treatment control. One standard deviation is shown. […] Cells were seeded in 384-well plates and treated with a dilution series of MEL23 for 48 hours at the indicated concentrations. Alamar Blue was added for 16 hours and fluorescence determined on a Victor3 Plate Reader. The median percent inhibition of five replicates was determined and normalized to a no treatment control. One standard deviation is shown.
(§2) Cells were seeded in 384-well black clear-bottom plates (Corning Inc., Corning, N.Y., Cat. No. 07-200-655). Cells were then treated with the indicated concentration of compound. Plates were incubated for 48 hours at 37° C. Alamar Blue (Invitrogen, Cat. No. DAL1100) was added to each well to a final concentration of 10% and incubated at 37° C. for 16 hours. Fluorescence intensity was determined using the Victor3 Plate Reader (PerkinElmer). Median percent survival or growth inhibition was calculated and normalized to a no treatment control.

[3] = system: wild-type, p53−/− and p53−/−; mdm2−/− MEFs; test: Alamar Blue viability assay, mouse embryonic fibroblasts; assay type: cell-based; conditions: 48 hours
Protocol: as §1, §2

[4] = system: U2OS (p53 wild-type) and H1299 (p53 null) cells; test: combination viability assay, excess over Bliss independence; assay type: cell-based, human
Protocol: All values were normalized to no treatment. […] Percent cell death was determined by normalization to a no treatment control. Bliss Independence was determined by the formula C=A+B−A*B, where A is treatment with one compound alone and B is treatment with the second compound alone.
Cells were then treated with the indicated concentration of compound. […] Fluorescence intensity was determined using the Victor3 Plate Reader (PerkinElmer). Median percent survival or growth inhibition was calculated and normalized to a no treatment control.
The excess over the predicted Bliss independence was determined by subtracting the predicted Bliss effect for each treatment from the experimentally determined growth inhibition for the same treatment.

T1 sequence (Q00987 400-491): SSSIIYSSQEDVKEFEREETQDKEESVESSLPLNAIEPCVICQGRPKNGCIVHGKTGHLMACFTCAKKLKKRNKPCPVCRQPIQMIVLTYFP
T1 sequence (O15151 410-490): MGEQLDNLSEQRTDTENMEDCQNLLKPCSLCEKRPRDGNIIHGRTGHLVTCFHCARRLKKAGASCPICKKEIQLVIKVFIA

CCCCn1c(=O)[nH]c(O)c(C2NCCc3c2[nH]c2ccccc32)c1=O (stereo not shown) [MEL23]
ubiquitination of the Mdm2 RING-MdmX RING hetero-complex [1]: inhibited
complex formation (co-immunoprecipitation) [2]: did not inhibit p53-Mdm2 complex formation; also recorded: does not inhibit
RKO cell survival (RKO and RKO-E6 cells): decreased in a dose-dependent manner
RKO-E6 cell survival (RKO and RKO-E6 cells): remained largely unaffected
survival of p53−/− MEFs ([3]; dilution series): also decreased
survival of wild-type MEFs ([3]; dilution series): survival of the wild-type cells decreased the greatest
survival of p53−/− mdm2−/− MEFs ([3]; highest concentration tested): Only a small decrease in cell survival
synergy of MEL23 with Nutlin-3 on viability ([4]; 48 hours, excess over Bliss independence): Synergy between MEL23 and Nutlin-3 occurred, but to a lesser extent than the combination of MEL23 and DNA-damaging agents
synergy with DNA damaging agents in p53-null cells ([4]; H1299 (p53-null)): synergized with DNA damaging agents; also recorded: cooperated with DNA-damaging agents in p53-null cells to a small, yet reproducible, extent
synergy with camptothecin or etoposide on viability ([4]; U2OS and H1299, 48 hours, excess over Bliss independence): synergistic effect on viability
